Laboratory results taken from patent publication US20260193229A1, “BRISC DEUBIQUITINATING ENZYME INHIBITORS” (THE TRUSTEES OF THE UNIVERSITY OF PENNSYLVANIA, priority 2022, published 2026).

Assays:
Assay type in all cases: biochemical
[1] = target: RAP80 (BRCC36-Abraxas-BRCC45-MERIT40-RAP80) complex (Homo sapiens, UniProt P46736); test: Cross-reactivity against RAP80 holoenzyme; conditions: FIG. 7A
[2] = target: ARISC (BRCC36-Abraxas-BRCC45-MERIT40) (Homo sapiens, UniProt P46736); test: Cross-reactivity against ARISC holoenzyme; conditions: FIG. 7A
BRCC36 enzyme activity = target: T1, BRCC36 enzyme activity (Homo sapiens, UniProt P46736+Q15018); test: Mode of inhibition: increasing di-Ubiquitin substrate and free Zn2+
T1 construct: made in house; host or cells: insect cells (MultiBac baculovirus)

trypsin = test: Selectivity counter-assay against trypsin; conditions: FIG. 6C / 7A
USP2 = target: T2, USP2 (Homo sapiens, UniProt O75604); test: Selectivity counter-assay against USP2; conditions: FIG. 6C / 7A
T2 sequence (O75604 1-605): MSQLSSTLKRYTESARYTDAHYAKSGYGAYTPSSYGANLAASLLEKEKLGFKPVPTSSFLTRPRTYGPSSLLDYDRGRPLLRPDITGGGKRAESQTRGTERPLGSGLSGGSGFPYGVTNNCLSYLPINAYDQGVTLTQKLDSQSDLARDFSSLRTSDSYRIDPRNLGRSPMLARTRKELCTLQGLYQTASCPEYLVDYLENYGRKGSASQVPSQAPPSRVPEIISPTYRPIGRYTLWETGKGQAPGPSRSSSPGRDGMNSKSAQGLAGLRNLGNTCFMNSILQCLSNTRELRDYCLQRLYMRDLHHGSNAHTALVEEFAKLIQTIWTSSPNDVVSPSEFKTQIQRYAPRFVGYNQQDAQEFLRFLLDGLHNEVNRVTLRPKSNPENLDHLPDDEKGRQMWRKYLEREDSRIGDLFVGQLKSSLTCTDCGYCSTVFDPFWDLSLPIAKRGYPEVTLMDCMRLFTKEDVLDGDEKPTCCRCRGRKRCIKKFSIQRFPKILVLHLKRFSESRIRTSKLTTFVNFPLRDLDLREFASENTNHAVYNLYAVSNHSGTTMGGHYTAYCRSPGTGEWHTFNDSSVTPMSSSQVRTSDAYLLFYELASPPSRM

BRISC = target: T3, BRISC (Homo sapiens, UniProt P46736+Q15018); test: BRISC DUB inhibition assay with quenched K63-linked di-ubiquitin substrate (TAMRA fluorescence); conditions: Table 1, Activity Range Table
T3 construct: made in house; host or cells: insect cells (MultiBac baculovirus)
Protocol: High throughput screening. A baculoviral expression system was established to purify milligram quantities of the entire BRISC complex from insect cells. The MultiBac system was used to clone all 4 components of the BRISC complex into one vector which was then packaged into the baculovirus genome using the methods described in Zeqiraj et al., 2015 (Mol. Cell).
The assay buffer included: 50 mM HEPES-NaOH, pH 7.0; 100 mM NaCl; 1 mM DTT; 1 mg/ml BSA; and 0.03% Brij-35. BRISC was assayed at 1 nM (final concentration) with the substrate at 500 nM (final concentration). The final reaction volume was 20 μl in each 384 plate well (Corning, #3573; black, low flange, flat bottom) with a final concentration of compounds of 10 μM.
A 5 ml of enzyme solution with BRISC at 2 nM in assay buffer was made by adding 10 μl of BRISC working stock (1 μM) to 5 ml of assay buffer. A 5 ml of substrate solution was made with […] of K63-diUbiquitin (made in-house) plus […] of IQF K63-diUbiquitin by adding the appropriate volumes of diUbiquitins to 5 ml of assay buffer. 45 μL of BRISC (enzyme solution) was dispensed into columns 1-11 of a 96 well PCR plate (skirted). Buffer was only dispensed in column 12 (no enzyme control). 45 μl of substrate solution was dispensed into columns 1-12 of a 96 well PCR plate (skirted). The plate was spun down at 3000 rpm (bench top centrifuge) at room temp for 2 min to remove any air bubbles. Using a Biomek FX, liquid handler (Bekman), 10 μl of BRISC (enzyme solution) was dispensed into the 4 quadrants of a 384 well plate. 200 nl of compounds was dispensed into each well of the 384 plates using the pin tool (columns A and B usually contain DMSO only, and serve as controls), and the plates were incubated for 10-15 minutes at room temperature. 10 μl of substrate solution was dispensed into the 4 quadrants of the 384 well plate. The plate was then incubated for 30 min at room temperature in the dark and read with settings suitable for detecting TAMRA fluorescence (excitation wavelength of 540 nm and emission wavelength of 580 nm). A PHERAStar plate (BMG labtech) reader was used with a gain value of 570. The Intensity/Background (I/Bg), defined as [(Average of columns 1 and 2; DMSO controls)/(Average of columns 23 and 24; no enzyme controls)], were about 5.
The activities of the compounds disclosed in the present disclosure in inhibiting BRCC36 enzyme activity was measured in accordance with the method disclosed in Example 2.

- cross reactivity to RAP80 holoenzyme [1]: no significant cross reactivity
- cross reactivity to ARISC holoenzyme [2]: no significant cross reactivity
- mode of inhibition (BRCC36 enzyme activity): non-competitive inhibitors
- selectivity for BRISC versus USP2 (USP2): selectivity for BRISC
- IC50 (BRISC): 1 to 10 µM
Structure (SMILES): O=C(NC1CCNCC1)c1nn(C(=O)c2c(Cl)cccc2Cl)cc1NC(=O)c1c(Cl)cccc1Cl [Compound 1, 4-(2,6-dichlorobenzamido)-1-(2,6-dichlorobenzoyl)-N-(piperidin-4-yl)-1H-pyrazole-3-carboxamide]
- selectivity for BRISC versus trypsin (trypsin): selectivity for BRISC
